How the values were obtained:
SF295 = assay: NCI-60 SRB screen, CNS cancer; assay type: cell-based, human; conditions: Homo sapiens, SF-295; SF295; five dose 0.01–100 µM, 48 h; read-out: GI50
HL-60(TB) = assay: NCI-60 SRB screen, leukemia; assay type: cell-based, human; conditions: Homo sapiens
TK-10 = assay: NCI-60 SRB screen, renal cancer; assay type: cell-based, human; conditions: Homo sapiens; TK-10; five dose 0.01–100 µM, 48 h; read-out: GI50
[1] = test system: NCI 60 human cancer cell line panel; assay: NCI 60 cell line screen (SRB), panel values; conditions: Homo sapiens, 60 cell; for GI50: read-out: Mean GI50, mean over all NCI 60 cell lines; for CC50: read-out: Mean LC50; for IC (TGI (total growth inhibition)): read-out: Mean TGI
MOLT-4 = assay: NCI-60 SRB screen, leukemia; assay type: cell-based, human; conditions: Homo sapiens; MOLT-4; five dose 0.01–100 µM, 48 h; read-out: GI50
T-47D = assay: NCI-60 SRB screen, breast cancer; assay type: cell-based, human; conditions: Homo sapiens, T47D; T-47D; five dose 0.01–100 µM, 48 h; read-out: GI50
DU-145 = assay: NCI-60 SRB screen, prostate cancer; assay type: cell-based, human; conditions: Homo sapiens; DU-145; five dose 0.01–100 µM, 48 h; read-out: GI50
NCI/ADR-RES = assay: NCI-60 SRB screen, ovarian cancer; assay type: cell-based, human; conditions: Homo sapiens, five dose 0.01–100 µM, 48 h, read-out: GI50
SK-MEL-28 = assay: NCI-60 SRB screen, melanoma; assay type: cell-based, human; conditions: Homo sapiens; SK-MEL-28; five dose 0.01–100 µM, 48 h; read-out: GI50
K-562 = assay: NCI-60 SRB screen, leukemia; assay type: cell-based, human; conditions: Homo sapiens, K562, 48 h; read-out: GI50
HS 578T = assay: NCI-60 SRB screen, breast cancer; assay type: cell-based; conditions: Homo sapiens; HS 578T; five dose 0.01–100 µM, 48 h; read-out: GI50
SK-OV-3 = assay: NCI-60 SRB screen, ovarian cancer; assay type: cell-based, human; conditions: Homo sapiens; SK-OV-3; five dose 0.01–100 µM, 48 h; read-out: GI50
RPMI-8226 = assay: NCI-60 SRB screen, leukemia; assay type: cell-based, human; conditions: Homo sapiens; RPMI-8226; five dose 0.01–100 µM, 48 h; read-out: GI50
SR = assay: NCI-60 SRB screen, leukemia; assay type: cell-based, human; conditions: Homo sapiens, five dose 0.01–100 µM, 48 h, read-out: GI50
SF539 = assay: NCI-60 SRB screen, CNS cancer; assay type: cell-based, human; conditions: Homo sapiens, SF-539; SF539; five dose 0.01–100 µM, 48 h; read-out: GI50
MDA-MB-231/ATCC = assay: NCI-60 SRB screen, breast cancer; assay type: cell-based, human; conditions: Homo sapiens; MDA-MB-231/ATCC; five dose 0.01–100 µM, 48 h; read-out: GI50
SN12C = assay: NCI-60 SRB screen, renal cancer; assay type: cell-based, human; conditions: Homo sapiens, five dose 0.01–100 µM, 48 h, read-out: GI50
NCI-H226 = assay: NCI-60 SRB screen, non-small cell lung cancer; assay type: cell-based; conditions: Homo sapiens; NCI-H226; five dose 0.01–100 µM, 48 h; read-out: GI50
NCI-H332M = assay: NCI-60 SRB screen, non-small cell lung cancer; assay type: cell-based; conditions: Homo sapiens, […], five dose 0.01–100 µM, 48 h, read-out: GI50
MALME-3M = assay: NCI-60 SRB screen, melanoma; assay type: cell-based, human; conditions: Homo sapiens; MALME-3M; five dose 0.01–100 µM, 48 h; read-out: GI50
NCI-H460 = assay: NCI-60 SRB screen, non-small cell lung cancer; assay type: cell-based, human; conditions: Homo sapiens; NCI-H460; five dose 0.01–100 µM, 48 h; read-out: GI50
NCI-H552 = assay: NCI-60 SRB screen, non-small cell lung cancer; assay type: cell-based, human; conditions: Homo sapiens; NCI-H552; five dose 0.01–100 µM, 48 h; read-out: GI50
U251 = assay: NCI-60 SRB screen, CNS cancer; assay type: cell-based, human; conditions: Homo sapiens, U-251; U251; five dose 0.01–100 µM, 48 h; read-out: GI50
MDA-MB-435 = assay: NCI-60 SRB screen, melanoma; assay type: cell-based, human; conditions: Homo sapiens; MDA-MB-435; five dose 0.01–100 µM, 48 h; read-out: GI50
SNB-19 = assay: NCI-60 SRB screen, CNS cancer; assay type: cell-based, human; conditions: Homo sapiens; SNB-19; five dose 0.01–100 µM, 48 h; read-out: GI50
CCRF-CEM = assay: NCI-60 SRB screen, leukemia; assay type: cell-based; conditions: Homo sapiens, five dose 0.01–100 µM, 48 h, read-out: GI50
OVCAR-5 = assay: NCI-60 SRB screen, ovarian cancer; assay type: cell-based, human; conditions: Homo sapiens; OVCAR-5; five dose 0.01–100 µM, 48 h; read-out: GI50
[2] = HL-60(TB), five dose 0.01–100 µM, 48 h

| Compound | GI50 (SF295) [nM] | GI50 (HL-60(TB); [2]) [nM] | GI50 (TK-10) [µM] | GI50 [1] [nM] | CC50 [1] [µM] | IC (TGI (total growth inhibition)) [1] [µM] | GI50 (MOLT-4) [nM] | GI50 (T-47D) [µM] | GI50 (DU-145) [nM] | GI50 (NCI/ADR-RES) [nM] | GI50 (SK-MEL-28) [nM] | GI50 (K-562) [nM] | GI50 (HS 578T) [nM] | GI50 (SK-OV-3) [nM] | GI50 (RPMI-8226) [nM] | GI50 (SR) [nM] | GI50 (SF539) [nM] | GI50 (MDA-MB-231/ATCC) [nM] | GI50 (SN12C) [nM] | GI50 (NCI-H226) [µM] | other results |
| --- | --- | --- | --- | --- | --- | --- | --- | --- | --- | --- | --- | --- | --- | --- | --- | --- | --- | --- | --- | --- | --- |
| C=C(C)C1C(=O)N(c2cc(OC)c(OC)c(OC)c2)C1c1ccc(OC)c(OP(=O)(O)O)c1 (centres unmarked) [15a, 2-Methoxy-5-(4-oxo-3-(prop-1-en-2-yl)-1-(3,4,5-trimethoxyphenyl)azetidin-2-yl)-phenyl dihydrogen phosphate] | 32.4 | 27.9 | 43.1 | 138 | 85.1 | 43.6 | 85.2 | > 100 | 80.9 | 36.5 | 83.1 | 45 | 63.1 | 79.1 | 105 | 53.1 | 39.8 | 53.4 | 192 | > 100 | GI50 (HL-60(TB); HL-60, NCI screen): < 34 nM; GI50 (NCI-H332M): 82 nM; GI50 (MALME-3M): 30.1 µM; GI50 (NCI-H460): 44.8 nM; GI50 (NCI-H552): 26 nM; GI50 (U251): 39.5 nM; GI50 (MDA-MB-435): 25.9 nM; GI50 (SNB-19): 429 nM; GI50 (CCRF-CEM): 55.7 nM; GI50 (OVCAR-5): 535 nM |
| COc1ccc(C2C(C(C)C)C(=O)N2c2cc(OC)c(OC)c(OC)c2)cc1OP(=O)(O)O (centres unmarked) [15b, 5-(3-Isopropyl-1-(3,4,5-trimethoxyphenyl)-4-oxoazetidin-2-yl)-2-methoxyphenyl dihydrogen phosphate] | 137 | 305 | 0.695 | 525 | 93.3 | 44.7 | 493 | > 100 | 368 | 212 | 389 | 374 | 173 | 416 | 478 | 324 | 132 | 215 | 463 | > 100 | GI50 (NCI-H332M): 592 nM; GI50 (MALME-3M): > 100 µM; GI50 (NCI-H460): 325 nM; GI50 (NCI-H552): 237 nM; GI50 (U251): 276 nM; GI50 (MDA-MB-435): 73.8 nM; GI50 (SNB-19): 477 nM; GI50 (CCRF-CEM): 356 nM; GI50 (OVCAR-5): 2340 nM |

From article PMC10385824, “Antiproliferative and Tubulin-Destabilising Effects of 3-(Prop-1-en-2-yl)azetidin-2-Ones and Related Compounds in MCF-7 and MDA-MB-231 Breast Cancer Cells” (Pharmaceuticals, 2023)
